According to patent US6627399B1, “RNA polymerase transcription promoters and nucleic acid sequencing method” (Riken, priority 1998, dated 2003):

Molecular target: wild-type T7 RNA polymerase (Escherichia phage T7, UniProt P00573)
Experiment: Accelerating effect of polyamines on in vitro transcription activity of T7 RNA polymerase ([α32P]UTP incorporation, gel electrophoresis)
Type: biochemical, bacteriophage T7
Set-up: key: fold radioactivity relative to blank without polyamine
Details: polyamine final concentration 2 mM, 37° C. for one hour; amplification of radioactivity of transcription products compared to a blank without polyamine
Procedure: An activation level was evaluated by observing an effect of a polyamine on in vitro transcription activation using bacteriophage T7 RNA polymerase in the reaction system below.
Each polyamine was added to 10 μl of reaction solution (40 mM Tris-Cl, pH 8.0, 8 mM MgCl2, 5 mM DTT, 200 µM GMP, wild-type T7 RNA polymerase 5U, 0.2 μCi [α32P]UTP, dsDNA produced by cleavage of pBluescript [Stratagene] by a restriction enzyme Pvull 500 μM as rNTP template DNA) to yield a final concentration of 2 mM, then reacted at 37° C. for one hour. After the reaction, 10 μl of formamide loading dye (98% formamide, 10 mM EDTA) was added to the products, heated at 90° C. for modification, subsequently analyzed by electrophoresis on 4% acrylamide gel. The gel was dried after the electrophoresis, observed for radioactivity contained in the transcription products using the BAS2000 image analysis system (Fujiphotofilm Inc.), and evaluated for activation level of each polyamine.
Data is given in amplification of radioactivity compared to a blank in which a reaction is carried out in parallel in the same condition excepting no polyamine was added.

Chain of wild-type T7 RNA polymerase (P00573 whole entry): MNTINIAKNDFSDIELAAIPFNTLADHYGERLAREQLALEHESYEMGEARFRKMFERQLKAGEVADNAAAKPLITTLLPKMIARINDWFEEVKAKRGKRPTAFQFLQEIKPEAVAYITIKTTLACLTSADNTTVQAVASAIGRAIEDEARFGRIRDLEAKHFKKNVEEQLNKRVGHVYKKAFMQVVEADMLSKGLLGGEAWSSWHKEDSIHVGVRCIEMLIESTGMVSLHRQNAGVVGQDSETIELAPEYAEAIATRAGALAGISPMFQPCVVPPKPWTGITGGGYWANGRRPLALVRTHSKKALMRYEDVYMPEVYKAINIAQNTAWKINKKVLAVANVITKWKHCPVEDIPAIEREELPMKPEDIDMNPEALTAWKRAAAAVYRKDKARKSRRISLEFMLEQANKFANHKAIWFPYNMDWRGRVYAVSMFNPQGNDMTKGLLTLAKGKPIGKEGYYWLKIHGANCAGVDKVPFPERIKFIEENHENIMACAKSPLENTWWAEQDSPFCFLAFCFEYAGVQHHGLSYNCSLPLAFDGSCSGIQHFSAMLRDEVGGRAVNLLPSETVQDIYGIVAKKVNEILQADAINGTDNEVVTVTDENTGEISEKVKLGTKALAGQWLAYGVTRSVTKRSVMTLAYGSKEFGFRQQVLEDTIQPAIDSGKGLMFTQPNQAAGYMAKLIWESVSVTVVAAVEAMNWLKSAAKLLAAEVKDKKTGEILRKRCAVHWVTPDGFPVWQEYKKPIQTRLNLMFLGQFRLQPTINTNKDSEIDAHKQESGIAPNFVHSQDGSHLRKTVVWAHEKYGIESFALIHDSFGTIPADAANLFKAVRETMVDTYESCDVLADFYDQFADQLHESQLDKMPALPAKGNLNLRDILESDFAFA

Compound | Activity Level
CCNCCCCNCCCCNCCCCNCC [Compound 15a, 1,14-di(ethylamino)-5,10-diazatetradecane] | 1.21
CCNCCCCNCCCCCNCCCCNCC [Compound 15b, 1,15-di(ethylamino)-5,11-diazapentadecane] | 1.18
CCNCCCCNCCCCCCNCCCCNCC [Compound 15c, 1,16-di (ethylamino)-5,12-diazahexadecane] | 1.12
CCNCCCCNCCCCCCCNCCCCNCC [Compound 15d, 1,17-di(ethylamino)-5,13-diazaheptadecane] | 1.29
CCNCCCCNCCCCCCCCNCCCCNCC [Compound 15e, 1, 18-di(ethylamino)-5,14-diazaoctadecane] | 2.52
CCNCCCCNCCCCCCCCCNCCCCNCC [Compound 15f, 1,19-di(ethylamino)-5,15-diazanonadecane] | 1.18
CCNCCCCNCCCCCCCCCCNCCCCNCC [Compound 15g, 1,20-di(ethylamino)-5,16-diazaeicosane] | 2.01
CCNCCCNCCCCN [Compound 18, 1-ethylamino-8-amino-4-azaoctane] | 1.12
NCCCCNCCCCCCCCNCCCCN [Compound 19, 1,18-diamino-5,14-diazaoctadecane] | 1.41
CCN(CCCCCCCCN(CC)S(=O)(=O)c1ccc(C)cc1)S(=O)(=O)c1ccc(C)cc1 [Compound 20, N1,N8-di(p-toluenesulfonyl)-di(ethylamino)-octane] | 1.11
CCNCCCCCCCCNCC [Compound 21, N1,N8di(ethylamino)-octane] | 4.91
CCN(CCCCCN(CC)S(=O)(=O)c1ccc(C)cc1)S(=O)(=O)c1ccc(C)cc1 [Compound 22, N1,N5-di(p-toluenesulfonyl)-di(ethylamino)pentane] | 1.43
CCNCCCCCNCC [Compound 23, N1,N5-di(ethylamino)pentane] | 3.52
